These are literature values, as cited in patent US20120015968A1, “USE OF PYRIMIDYLAMINOBENZAMIDE DERIVATIVES FOR THE TREATMENT OF DISORDERS MEDIATED BY THE LEUCINE ZIPPER-AND STERILE ALPHA MOTIF-CONTAINING KINASE (ZAK)” (NOVARTIS AG, priority 2009, published 2012).

The target of this data set is ZAK (Homo sapiens, UniProt Q9NYL2). The following applies: biotinylated myelin basic protein as substrate; U. Rix et al, Leukemia (2010) 24, 44-50, p. 48; read-out: IC50 of inhibition of ZAK activity.

SMILES strings stand for the structures.

Chain of ZAK (Q9NYL2 whole entry): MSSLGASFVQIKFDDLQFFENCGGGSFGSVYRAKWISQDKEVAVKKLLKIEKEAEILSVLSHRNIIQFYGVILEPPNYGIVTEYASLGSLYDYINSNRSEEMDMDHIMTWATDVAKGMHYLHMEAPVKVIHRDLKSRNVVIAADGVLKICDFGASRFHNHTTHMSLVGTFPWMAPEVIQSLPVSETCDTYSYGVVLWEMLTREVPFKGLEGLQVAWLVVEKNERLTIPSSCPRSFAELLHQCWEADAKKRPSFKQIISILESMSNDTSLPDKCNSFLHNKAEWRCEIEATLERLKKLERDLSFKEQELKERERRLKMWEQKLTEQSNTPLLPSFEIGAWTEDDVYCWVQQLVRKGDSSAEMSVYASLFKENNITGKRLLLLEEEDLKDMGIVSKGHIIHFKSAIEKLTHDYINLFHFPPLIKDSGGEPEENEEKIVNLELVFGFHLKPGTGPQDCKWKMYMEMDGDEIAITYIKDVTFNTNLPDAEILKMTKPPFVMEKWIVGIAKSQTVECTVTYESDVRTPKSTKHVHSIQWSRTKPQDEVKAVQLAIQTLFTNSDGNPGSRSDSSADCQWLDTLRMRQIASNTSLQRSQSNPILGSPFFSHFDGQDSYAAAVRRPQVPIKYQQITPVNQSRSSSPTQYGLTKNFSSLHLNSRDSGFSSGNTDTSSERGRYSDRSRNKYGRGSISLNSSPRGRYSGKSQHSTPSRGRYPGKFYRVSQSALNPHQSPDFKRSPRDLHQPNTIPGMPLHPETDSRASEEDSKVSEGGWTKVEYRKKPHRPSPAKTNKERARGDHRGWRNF

As usually defined, the IC50 is the concentration that inhibits the measured activity by half. As for `Cc1ccc(NC(=O)c2ccc(CN3CC[C@H](N(C)C)C3)c(C(F)(F)F)c2)cc1Nc1nccc(-c2cncnc2)n1` [INNO-406], the IC50 was 73 nM.
